Data from ChEMBL document CHEMBL1201862, “PubChem BioAssay data set” (2004).
Activity calls are given as the source filed them. For most assays here, no stated cut-off is given here; in the data, actives have a measured EC50 and inactives only a lower limit.

How the values were obtained:
[1] = P. falciparum Dd2 growth inhibitors, dose response, SYBR Green, cherry-picked samples (AID 1159567); format: functional, cell-based
[2] = inhibitors of firefly luciferase expression or activity, dose response, H4 neuroglioma cells, luminescence (AID 1990); format: functional, cell-based
[3] = biological target: T1, RNA-binding protein pos-1 (Caenorhabditis elegans, UniProt G5EF15); experiment: inhibitors of POS-1/mex-3 RNA binding, dose response, biochemical, fluorescence polarization (AID 1964);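 further: purified POS-1 fused to maltose binding protein made in E. coli; potency of compounds blocking POS-1 binding to fluorescent RNA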
T1 sequence (G5EF15 whole entry): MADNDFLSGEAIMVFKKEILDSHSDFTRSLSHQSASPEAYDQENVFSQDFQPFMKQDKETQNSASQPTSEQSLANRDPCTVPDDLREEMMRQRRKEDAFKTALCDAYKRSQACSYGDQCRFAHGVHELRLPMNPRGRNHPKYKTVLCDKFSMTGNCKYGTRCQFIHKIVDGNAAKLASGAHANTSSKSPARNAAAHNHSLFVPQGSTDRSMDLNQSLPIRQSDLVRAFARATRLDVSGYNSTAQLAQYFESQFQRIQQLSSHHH

[4] = Luminescence Cell-Based Dose Response HTS to Identify Inhibitors of 5'UTR Stem-Loop Driven Prion Protein mRNA Translation in H4 Neuroglioblastoma Cells. [Related pubchem assays: 1827 (Project Summary), 1813 (Primary HTS)]; format: functional
[5] = biological target: T2, Zinc finger protein mex-5 (Caenorhabditis elegans, UniProt Q9XUB2); experiment: MEX-5/TCR-2 RNA interaction inhibitors, dose response, biochemical, C. elegans, fluorescence polarization (AID 1960)
T2 sequence (Q9XUB2 whole entry): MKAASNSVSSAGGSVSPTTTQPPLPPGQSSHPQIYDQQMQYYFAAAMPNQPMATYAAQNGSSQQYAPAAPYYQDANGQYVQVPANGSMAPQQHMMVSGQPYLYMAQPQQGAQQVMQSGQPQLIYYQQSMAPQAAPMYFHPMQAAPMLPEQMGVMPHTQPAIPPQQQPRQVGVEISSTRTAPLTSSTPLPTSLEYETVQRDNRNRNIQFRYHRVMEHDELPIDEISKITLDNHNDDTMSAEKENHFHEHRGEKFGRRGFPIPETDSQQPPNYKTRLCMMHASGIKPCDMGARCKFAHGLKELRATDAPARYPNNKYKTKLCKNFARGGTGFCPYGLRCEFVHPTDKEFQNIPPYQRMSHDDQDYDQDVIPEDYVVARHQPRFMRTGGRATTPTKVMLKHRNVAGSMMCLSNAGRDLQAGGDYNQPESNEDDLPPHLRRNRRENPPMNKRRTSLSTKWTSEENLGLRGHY

[6] = inhibitors of SNCA 5'UTR-driven reporter translation, confirmation, H4 neuroglioma cells, luminescence (AID 1988); format: functional, cell-based
[7] = biological target: T3, Heat shock factor protein 1 (Mus musculus, UniProt P38532); experiment: HSF1 potentiators in luciferase reporter cells, confirmation, cell-based, NIH3T3, luminescence, dose retest (AID 435004); format: functional;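 further: stress induced by proteasome inhibitor MG132 added 30 min after compound; luciferase reporter driven by HSF1 response element in NIH3T3 cells; actives raise luminescence as potentiators of the MG132 stress response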
T3 sequence (P38532 whole entry): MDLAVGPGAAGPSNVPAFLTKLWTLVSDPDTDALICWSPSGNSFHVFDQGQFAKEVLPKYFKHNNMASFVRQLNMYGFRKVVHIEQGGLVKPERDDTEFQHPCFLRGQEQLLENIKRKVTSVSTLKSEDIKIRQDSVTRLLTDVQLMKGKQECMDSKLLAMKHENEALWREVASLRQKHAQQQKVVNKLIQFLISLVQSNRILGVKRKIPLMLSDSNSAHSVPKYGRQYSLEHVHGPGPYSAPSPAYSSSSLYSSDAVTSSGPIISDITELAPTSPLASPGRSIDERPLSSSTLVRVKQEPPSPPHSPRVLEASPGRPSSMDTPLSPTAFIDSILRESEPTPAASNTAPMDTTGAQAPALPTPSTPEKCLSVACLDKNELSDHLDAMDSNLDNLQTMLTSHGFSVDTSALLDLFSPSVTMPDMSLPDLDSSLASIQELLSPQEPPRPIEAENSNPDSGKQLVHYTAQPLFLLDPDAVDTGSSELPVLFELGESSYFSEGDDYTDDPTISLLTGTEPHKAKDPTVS

[8] = biological target: T4, Short transient receptor potential channel 4 (Mus musculus, UniProt Q9QUQ5); experiment: mouse TRPC4 channel inhibitors, dose response, cell-based, HEK293 TRPC4/mu-opioid, Fluo-4 calcium (AID 434942); format: functional;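 further: potency of inhibitors blocking the TRPC4 calcium response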
T4 sequence (Q9QUQ5 whole entry): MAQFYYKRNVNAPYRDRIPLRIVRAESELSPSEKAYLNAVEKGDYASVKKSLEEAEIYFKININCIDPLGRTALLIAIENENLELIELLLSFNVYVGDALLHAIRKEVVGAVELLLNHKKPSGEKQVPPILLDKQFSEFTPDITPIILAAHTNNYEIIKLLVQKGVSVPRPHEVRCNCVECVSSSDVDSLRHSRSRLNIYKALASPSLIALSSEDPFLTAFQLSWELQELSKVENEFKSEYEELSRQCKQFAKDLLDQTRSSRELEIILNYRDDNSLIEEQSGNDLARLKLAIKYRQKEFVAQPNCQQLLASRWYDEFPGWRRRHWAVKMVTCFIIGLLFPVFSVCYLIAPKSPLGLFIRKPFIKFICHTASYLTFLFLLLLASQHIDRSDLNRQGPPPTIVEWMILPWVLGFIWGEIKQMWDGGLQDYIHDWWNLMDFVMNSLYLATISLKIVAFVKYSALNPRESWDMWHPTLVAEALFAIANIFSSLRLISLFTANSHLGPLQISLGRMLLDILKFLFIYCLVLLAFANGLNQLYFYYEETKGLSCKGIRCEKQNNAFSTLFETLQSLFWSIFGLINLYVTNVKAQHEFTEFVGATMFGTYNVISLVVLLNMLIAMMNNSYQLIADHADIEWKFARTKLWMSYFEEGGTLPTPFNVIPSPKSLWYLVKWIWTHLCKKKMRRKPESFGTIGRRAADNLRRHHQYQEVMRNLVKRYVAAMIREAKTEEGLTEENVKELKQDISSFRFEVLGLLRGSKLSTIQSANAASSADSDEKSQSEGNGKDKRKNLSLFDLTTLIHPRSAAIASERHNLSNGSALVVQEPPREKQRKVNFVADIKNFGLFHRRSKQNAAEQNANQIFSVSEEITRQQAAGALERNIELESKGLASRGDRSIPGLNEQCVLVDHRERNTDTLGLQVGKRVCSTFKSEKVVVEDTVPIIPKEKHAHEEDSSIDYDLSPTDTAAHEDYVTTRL

[9] = growth suppression of PTEN-null colon cells, dose response, cell-based, HCT116 PTEN knockout (AID 1047); format: functional;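 further: HCT116 colon tumor cells with PTEN knocked out; cells exposed to compound for 60 hours before readout; potency for loss of cell viability measured by luminescence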
[10] = growth suppression of beta-catenin-knockout colon cells, dose response, cell-based, HCT116, human colon tumor (AID 1045); format: functional;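 further: HCT116 colon tumor cells with beta catenin knocked out; cells exposed to compound for 60 hours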
[11] = inhibitors of intracellular T. cruzi replication, confirmation, NIH3T3 host cells, beta-gal luminescence (AID 2044); format: functional, cell-based;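 further: intracellular parasites grown in NIH/3T3 mouse fibroblasts as host cells; luminescent beta-galactosidase reporter signal from transgenic T. cruzi replicating inside host cells; inhibitors lower the luminescence signal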
[12] = cytotoxicity toward NIH3T3 fibroblasts, dose response, counter-screen, cell-based, ATP luminescence, mouse fibroblasts (AID 2010); format: functional;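 further: cells exposed to compound for about 90 hours before reading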
[13] = Luminescence Cell-Based Dose Retest to Confirm Inhibitors of Cancer Stem Cells. [Related pubchem assays (depositor defined):AID2717, AID2721]; format: functional; settings: Homo sapiens
INS1 = experiment: beta cell apoptosis inhibitors, cytokine rescue, dose response, luminescence, retest (AID 449756); format: functional, cell-based; settings: Rattus norvegicus;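 further: cell death triggered by IL-1 beta plus TNF-alpha plus IFN-gamma mixture; protective hits raise ATP signal compared with cytokine alone wells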
[14] = biological target: FAD-linked sulfhydryl oxidase ALR (Homo sapiens, UniProt P55789); experiment: inhibitors of human ALR sulfhydryl oxidase, dose response, biochemical, H2O2 detection, luminescence, cherry-pick (AID 493248)
Chain of FAD-linked sulfhydryl oxidase ALR (P55789 whole entry): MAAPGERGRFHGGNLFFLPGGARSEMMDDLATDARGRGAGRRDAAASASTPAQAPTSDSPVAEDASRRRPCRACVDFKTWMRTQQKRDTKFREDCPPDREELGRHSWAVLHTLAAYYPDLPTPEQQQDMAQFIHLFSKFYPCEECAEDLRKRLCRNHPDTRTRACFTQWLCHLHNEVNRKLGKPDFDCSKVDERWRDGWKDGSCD

SMILES: COc1ccccc1CN1C[C@@H](C)[C@H](OC)CN(C)C(=O)c2cc(NC(=O)Nc3ccccc3OC)ccc2OC[C@H]1C
- AC50 [1]: 4.12 µM (active)

SMILES: Cc1ccc(NC(=O)COc2ccc(/C=C3/S/C(=N/c4ccccc4)N(Cc4cccnc4)C3=O)cc2)cc1
- EC50 [2]: > 120 µM (not active)
- EC50 [3]: > 300 µM (not active)
- EC50 [4]: > 120 µM (not active)
- EC50 [5]: > 300 µM (not active)
- EC50 [6]: > 120 µM (not active)

SMILES: Cc1ccc(S(=O)(=O)NC(=O)Nc2ccc(C)cn2)cc1
- EC50 [7]: > 260 µM (inactive)

SMILES: CCOc1c(Cl)cc(CNC(C)C(O)c2ccccc2)cc1OC (stereo not drawn)
- EC50 [8]: 1.33 µM (active)

SMILES: CC1(C)CN(c2cccc(Br)c2)C1=O
- EC50 [7]: > 260 µM (inactive)

SMILES: COc1ccc(F)cc1S(=O)(=O)Nc1ccc2c(c1)OCO2
- EC50 [7]: > 260 µM (inactive)

SMILES: CCO/C(O)=C1\C(C)=Nc2sc(C(=O)c3ccc(C)cc3)c(N)c2C1c1ccc(C(=O)OC)cc1 (stereo not drawn)
- EC50 [2]: > 120 µM (not active)
- EC50 [4]: > 120 µM (not active)
- EC50 [6]: > 120 µM (not active)

SMILES: Cc1cccc2cc(CN(Cc3nnnn3Cc3ccccc3)C3CCCC3)c(O)nc12
- EC50 [8]: 0.149 µM (active)

SMILES: CCC1CCCCN1C(=O)COC(=O)c1cc2ccccc2cc1O (stereo not drawn)
- EC50 [7]: > 260 µM (inactive)

SMILES: COc1cccc(-c2cn(CC[C@@H]3CC[C@H](NS(=O)(=O)c4ccccc4Cl)[C@H](CO)O3)nn2)c1
- AC50 [1]: 7.33 µM (active)

SMILES: COc1cccc2cc(/C(=N/O)c3ccc(Br)cc3)oc12
- EC50 [2]: 14.6 µM (active)
- EC50 [4]: 18.6 µM (active)
- EC50 [6]: 12.8 µM (active)

SMILES: Cc1c(CN2CCC(n3nccc3NC(=O)CCc3ccccc3)CC2)cnn1C
- EC50 [8]: 0.421 µM (active)

SMILES: CCOC(=O)c1c(NC(=O)C2CCCCC2C(=O)O)sc2c1CCCCC2 (stereo not drawn)
- EC50 [8]: 5.96 µM (active)

SMILES: COc1cc(C(=O)Nc2nc(-c3ccc(Cl)cc3)c(C)s2)ccc1OCC(=O)Nc1ccc(F)cc1
- EC50 [9]: 1.92 µM (active)
- EC50 [10]: 1.46 µM (active)

SMILES: COc1ccccc1N1CCN(C(=O)Cn2nc(C(F)(F)F)c3c2CCC3)CC1
- EC50 [2]: > 120 µM (not active)
- EC50 [4]: > 120 µM (not active)
- EC50 [6]: > 120 µM (not active)

SMILES: CC(=O)Nc1ccccc1OC(C)C(=O)N1CC(C)CC(C)C1 (stereo not drawn)
- EC50 [7]: > 260 µM (inactive)

SMILES: Cc1ccc(C)c(N2CCN(CCCNC(=O)Cn3cc4c(n3)CCCCC4)CC2)c1
- EC50 [9]: 14.5 µM (active)
- EC50 [10]: 11.8 µM (active)

SMILES: C[C@@H]1CN([C@@H](C)CO)C(=O)c2cccc(NC(=O)C3CC3)c2O[C@H]1CN(C)Cc1ccc(-c2ccccc2)cc1
- AC50 [1]: 3.44 µM (active)

SMILES: CC(Sc1nnc2ccccn12)C(N)=O (stereo not drawn)
- EC50 [7]: > 260 µM (inactive)

SMILES: CC(=O)Nc1cccc(C(=O)/C=C/c2cccs2)c1
- EC50 [9]: 11.3 µM (active)
- EC50 [10]: 7.79 µM (active)

SMILES: CN(C)S(=O)(=O)Oc1ccsc1C(=O)Nc1ccccc1Cl
- EC50 [2]: > 120 µM (not active)
- EC50 [4]: > 120 µM (not active)
- EC50 [6]: 15.7 µM (active)

SMILES: Cc1cc(C)cc(C(=O)NC(=S)Nc2ccc(-c3cc4ccccc4oc3=O)cc2)c1
- EC50 [9]: 11.7 µM (active)
- EC50 [10]: 12.4 µM (active)

SMILES: N=c1c(S(=O)(=O)c2ccc(Cl)cc2)cc2c(=O)n3ccccc3nc2n1C1CCCC1
- EC50 [2]: 24.8 µM (active)
- EC50 [3]: 135 µM (active)
- EC50 [4]: > 120 µM (not active)
- EC50 [5]: 148 µM (inconclusive)
- EC50 [6]: 31.7 µM (active)
- EC50 [11]: 0.87 µM (active)
- EC50 [12]: 11.4 µM (active)

SMILES: CC(Oc1ccc(F)cc1Br)c1nc(O)c2ccccc2n1 (stereo not drawn)
- EC50 [7]: 74.4 µM (active)

SMILES: CC(Oc1cccc(Cl)c1)C(=O)Nc1ccc([N+](=O)[O-])cn1 (stereo not drawn)
- EC50 [2]: 21.4 µM (active)
- EC50 [4]: > 120 µM (not active)
- EC50 [6]: 59.8 µM (active)

SMILES: CCC(C)n1ncn(-c2ccc(N3CCN(c4ccc(O)cc4)CC3)cc2)c1=O (stereo not drawn)
- EC50 [2]: > 120 µM (not active)
- EC50 [4]: 19.7 µM (active)
- AC50 [13]: 1.2 µM (active)

SMILES: Cc1cccc(NC(=O)Nc2cccc(Oc3c(F)c(F)c(F)c(F)c3F)c2)c1
- EC50 [11]: 3.06 µM (active)
- EC50 [9]: 17.3 µM (active)
- EC50 [12]: 7.63 µM (active)
- EC50 [10]: 24.5 µM (active)
- AC50 (INS1): 4.92 µM (active)

SMILES: O=C(c1ccccc1F)N1CCN=C1SCc1cccnc1
- AC50 [14]: 0.552 µM (active)

SMILES: Cc1ccc(C(=O)O/N=C(\N)Cc2cccc3ccccc23)cc1
- EC50 [7]: > 260 µM (inactive)

SMILES: O=C(CC1C=Cc2ccccc2N1C(=O)c1ccccc1)c1ccccc1 (stereo not drawn)
- EC50 [7]: > 260 µM (inactive)

SMILES: COc1cnn(-c2cc(Oc3ccc(C)cc3)ncn2)c(=O)c1Cl
- EC50 [7]: > 260 µM (inactive)

SMILES: O=C(COC(=O)/C=C/c1ccc(Br)o1)NCCCN1CCCC1=O
- EC50 [7]: > 260 µM (inactive)

SMILES: CCCCN1C(=O)/C(=C/c2c[nH]nc2-c2ccccc2)SC1=S
- EC50 [7]: > 260 µM (inactive)
